Patent US8119630B2 (Arrow Therapeutics Limited, priority 2002, dated 2012)
pIC50: −log10 of the molar value.

Legend:
[1] = system: Hep-2 cells; assay: Toxicity studies (XTT), Hep-2 cells; assay type: cell-based; design: TC50 (6d): unit not given beside the values; settings: for TC50 (6d): Table 2, Examples 75 to 82 and 125 to 184, 6d, in µM; for TC50 (2d): Table 2, Examples 75 to 82 and 125 to 184, 2d
Description: (§1) The inner 60 wells of 96 well tissue culture plates were seeded with Hep-2 cells at 4×10^4 cells/well for compound activity and toxicity studies in 100 μl of medium and incubated at 37° C. overnight or until nearing confluency.
Cells were infected with 25 μl RSV previously titrated to give 80% cell kill. To each well 25 μM of test compound were added. The final DMSO concentration was 0.5%. […] Some 0.25 μl/ml PMS were added to stock […] solution, final conc. 25 μM PMS. Then 25 μl warmed XTT/PMS solution were added to each well and incubated for 1 hour at 37° C.

[2] = system: RSV; assay: XTT assay, RSV-infected Hep-2 cells; assay type: cell-based, Respiratory Syncytial Virus (RSV); settings: Table 2, Examples 75 to 82 and 125 to 184, Hep-2 cells infected with RSV, 6 days at 37° C.
Description: Examples 75 to 82 and 125 to 184 were tested according to the protocol described below.
as §1
Cells were infected with 25 μl RSV previously titrated to give 80% cell kill. To each well 25 μM of test compound were added. The final DMSO concentration was 0.5%. Some 200 μl of sterile distilled water were added to the outer wells of the plate and incubated at 37° C. for 6 days. Some 0.25 μl/ml PMS were added to stock […] solution, final conc. 25 μM PMS. Then 25 μl warmed XTT/PMS solution were added to each well and incubated for 1 hour at 37° C.
Maximum OD450nm reading (uninfected, untreated control cells) corresponded to 100% inhibition. Minimum OD450nm readings (infected control cells) corresponded to 0% inhibition. Log 10 concentration was plotted against OD450nm and IC50 values were calculated from either reading 50% value from graph or using regression analysis.

[3] = human respiratory syncytial virus, 144 h

Compound | TC50 (6d) [1] | pIC50 [2, 3] | TC50 (2d) [1] | pIC50 [2]
O=C(NC1N=C(c2ccccc2)c2ccccc2NC1=O)c1cn[nH]c1 (stereo not drawn) [Example 173, 1H-Pyrazole-4-carboxylic acid (2-oxo-5-phenyl-2,3-dihydro-1H-benzo[e][1,4]diazepin-3-yl)-amide] | 95 | 5.08 |  | 
CN(C)c1ccc(C(=O)NC2N=C(c3ccccc3)c3ccccc3NC2=O)cn1 (stereo not drawn) [Example 174, 6-Dimethylamino-N-(2-oxo-5-phenyl-2,3-dihydro-1H-benzo[e][1,4]diazepin-3-yl)-nicotinamide] | 60 | 5.16 |  | 
CCOc1ccc2ccccc2c1C(=O)NC1N=C(c2ccccc2)c2ccccc2NC1=O (stereo not drawn) [Example 175, 2-Ethoxy-naphthalene-1-carboxylic acid (2-oxo-5-phenyl-2,3-dihydro-1H-benzo[e][1,4]diazepin-3-yl)-amide] | >50 | 5.09 |  | 
O=C(NC1N=C(c2ccccc2)c2ccccc2NC1=O)c1cccc2c1C(=O)c1ccccc1-2 (stereo not drawn) [Example 176, 9-Oxo-9H-fluorene-1-carboxylic acid (2-oxo-5-phenyl-2,3-dihydro-1H-benzo[e][1,4]diazepin-3-yl)-amide] | 99 | 5.37 |  | 
O=C1Nc2ccccc2C(c2ccccc2)=NC1NC(=O)n1c(=O)[nH]c2ccccc21 (stereo not drawn) [Example 177, 2-Oxo-2,3-dihydro-benzoimidazole-1-carboxylic acid (2-oxo-5-phenyl-2,3-dihydro-1H-benzo[e][1,4]diazepin-3-yl)-amide] | >50 | 5.37 |  | 
CC(C)(C)OC(=O)NC1N=C(c2ccccc2)c2ccccc2NC1=O (stereo not drawn) [Example 178, (2-Oxo-5-phenyl-2,3-dihydro-1H-benzo[e][1,4]diazepin-3-yl)carbamic acid tert-butyl ester] | >50 | 5.37 |  | 
O=C(N[C@H]1N=C(c2ccccc2)c2ccccc2NC1=O)c1cc(Br)c(Br)o1 [Example 179, (S)-4,5-Dibromo-furan-2-carboxylic acid (2-oxo-5-phenyl-2,3-dihydro-1H-benzo[e][1,4]diazepin-3-yl)-amide] | >50 | 5.41 |  | 
O=C(N[C@H]1N=C(c2ccccc2)c2ccccc2NC1=O)c1cc2ccccc2o1 [Example 180, (S)-Benzofuran-2-carboxylic acid (2-oxo-5-phenyl-2,3-dihydro-1H-benzo[e][1,4]diazepin-3-yl)-amide] | 37.1 | 5.59 |  | 
COC(=O)NC1N=C(c2ccccc2)c2ccccc2NC1=O (stereo not drawn) [Example 181, (2-Oxo-5-phenyl-2,3-dihydro-1H-benzo[e][1,4]diazepin-3-yl)-carbamic acid methyl ester] | >50 | 5.02 |  | 
CCOC(=O)NC1N=C(c2ccccc2)c2ccccc2NC1=O (stereo not drawn) [Example 182, (2-Oxo-5-phenyl-2,3-dihydro-1H-benzo[e][1,4]diazepin-3-yl)-carbamic acid ethyl ester] | >50 | 5.00 |  | 
CC(C)COC(=O)NC1N=C(c2ccccc2)c2ccccc2NC1=O (stereo not drawn) [Example 183, (2-Oxo-5-phenyl-2,3-dihydro-1H-benzo[e][1,4]diazepin-3-yl)-carbamic acid isobutyl ester] | >50 | 5.01 |  | 
O=C(NC1N=C(c2ccccc2)c2ccccc2NC1=O)C(=O)c1cccs1 (stereo not drawn) [Example 184, 2-Oxo-N-(2-oxo-5-phenyl-2,3-dihydro-1H-benzo[e][1,4]diazepin-3-yl)-2-thiophene-2-yl-acetamide] |  | 5.02 | > 50 µM | 
Cyclohexanecarboxylic acid [5-(3-chloro-phenyl)-2-oxo-5-phenyl-2,3-dihydro-1H-benzo[e][1,4]diazepin-3-yl]-amide [Example 158] | >100 |  | 100 µM | 5.70
Cyclohexanecarboxylic acid [5-(3-methoxy-phenyl)-2-oxo-5-phenyl-2,3-dihydro-1H-benzo[e][1,4]diazepin-3-yl]-amide [Example 165] | >100 |  | > 100 µM | 5.70
